Target: T1, recombinant human NK3 receptor (Homo sapiens, UniProt P29371)
T1 construct: expressed in transfected cells; host or cells: HEK293 cells (transient expression), membranes
T1 sequence (P29371 1-465): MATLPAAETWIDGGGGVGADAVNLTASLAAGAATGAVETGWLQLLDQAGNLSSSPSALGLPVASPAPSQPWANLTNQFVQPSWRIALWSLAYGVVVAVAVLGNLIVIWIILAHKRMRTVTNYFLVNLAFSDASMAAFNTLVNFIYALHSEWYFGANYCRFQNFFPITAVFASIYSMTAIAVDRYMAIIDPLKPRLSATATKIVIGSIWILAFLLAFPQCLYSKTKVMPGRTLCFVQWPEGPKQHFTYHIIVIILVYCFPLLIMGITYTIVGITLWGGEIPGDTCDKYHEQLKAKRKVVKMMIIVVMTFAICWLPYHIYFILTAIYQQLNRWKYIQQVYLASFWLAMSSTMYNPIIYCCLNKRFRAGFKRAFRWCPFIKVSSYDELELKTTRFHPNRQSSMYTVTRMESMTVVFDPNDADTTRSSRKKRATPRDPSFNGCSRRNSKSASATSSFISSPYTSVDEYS
Experiment: [3H]SR142801 competition binding assay, hNK3 receptor binding
Details: [3H]SR142801 displacement; membranes from HEK293 cells transiently expressing recombinant human NK3 receptor; Ki by Cheng-Prussoff from IC50
Protocol: The compounds were investigated in accordance with the tests given hereinafter. [^3H]SR142801 competition binding assay hNK3 receptor binding experiment were performed using [^3H]SR142801 (Catalog No. TRK1035, specific activity: 74.0 Ci/mmol, Amersham, GE Healthcare UK limited, Buckinghamshire, UK) and membrane isolated from HEK293 cells transiently expressing recombinant human NK3 receptor. After thawing, the membrane homogenates were centrifuged at 48,000×g for 10 min at 4° C., the pellets were resuspended in the 50 mM Tris-HCl, 4 mM MnCl2, 1 μM phosphoramidon, 0.1% BSA binding buffer at pH 7.4 to a final assay concentration of 5 μg protein/well. For inhibition experiments, membranes were incubated with [^3H]SR142801 at a concentration equal to KD value of radioligand and 10 concentrations of the inhibitory compound (0.0003-10 μM) (in a total reaction volume of 500 μl) for 75 min at room temperature (RT). At the end of the incubation, membranes were filtered onto unitfilter (96-well white microplate with bonded GF/C filter preincubated 1 h in 0.3% PEI+0.3% BSA, Packard BioScience, Meriden, Conn.) with a Filtermate 196 harvester (Packard BioScience) and washed 4 times with ice-cold 50 mM Tris-HCl, pH 7.4 buffer. Nonspecific binding was measured in the presence of 10 μM SB222200 for both radioligands. The radioactivity on the filter was counted (5 min) on a Packard Top-count microplate scintillation counter with quenching correction after addition of 45 μl of microscint 40 (Can berra Packard S. A., Zürich, Switzerland) and shaking for 1 h. Inhibition curves were fitted according to the Hill equation: y=100/(1+(x/IC50)^nH), where nH=slope factor using Excel-fit 4 software (Microsoft). IC50 values were derived from the inhibition curve and the affinity constant (Ki) values were calculated using the Cheng-Prussoff equation Ki=IC50/(1+[L]/KD) where [L] is the concentration of radioligand and KD is its dissociation constant at the receptor, derived from the saturation isotherm. All experiments were performed in duplicate and the mean±standard error (SEM) of the individual Ki values was calculated.

SMILES	Ki [nM]
C[C@H](Oc1ccc(Cl)cn1)[C@H]1CCN(C(=O)C2CCN(C(=O)C3(C)CC3)CC2)C[C@@H]1c1ccc(Cl)cc1 (stereo in doubt) [Example 7, (4-{(3S,4S)-3-(4-Chloro-phenyl)-4-[(S)-1-(5-chloro-pyridin-2-yloxy)-ethyl]-piperidine-1-carbonyl}-piperidin-1-yl)-(1-methyl-cyclopropyl)-methanone]	2.6
C[C@H](Oc1ccc(C#N)cc1)[C@H]1CCN(C(=O)C2CCN(c3ccc(C#N)cn3)CC2)C[C@@H]1c1ccc(Cl)cc1 [Example 51, 4-{(3S,4S)-3-(4-Chloro-phenyl)-4-[(S)-1-(4-cyano-phenoxy)-ethyl]-piperidine-1-carbonyl}-3,4,5,6-tetrahydro-2H-[1,2′]bipyridinyl-5′-carbonitrile]	1.9
C[C@H](Oc1ccc(C#N)cn1)[C@H]1CCN(C(=O)C2CCN(c3ccc(C#N)cn3)CC2)C[C@@H]1c1ccc(F)c(F)c1 [Example 65, 4-[(3S,4S)-4-[(S)-1-(5-Cyano-pyridin-2-yloxy)-ethyl]-3-(3,4-difluoro-phenyl)-piperidine-1-carbonyl]-3,4,5,6-tetrahydro-2H-[1,2′]bipyridinyl-5′-carbonitrile]	0.4
C[C@H](Oc1ccc(C#N)cn1)[C@H]1CCN(C(=O)C2CCN(C(=O)C3(C)CC3)CC2)C[C@@H]1c1ccc(F)c(F)c1 [Example 66, 6-((S)-1-{(3S,4S)-3-(3,4-Difluoro-phenyl)-1-[1-(1-methyl-cyclopropanecarbonyl)-piperidine-4-carbonyl]-piperidin-4-yl}-ethoxy)-nicotinonitrile]	4.6
C[C@H](Oc1ccc(C(F)(F)F)cc1)[C@H]1CCN(C(=O)C2CCN(c3ccc(C#N)cn3)CC2)C[C@@H]1c1ccc(Cl)cc1 [Example 50, 4-{(3S,4S)-3-(4-Chloro-phenyl)-4-[(S)-1-(4-trifluoromethyl-phenoxy)-ethyl]-piperidine-1-carbonyl}-3,4,5,6-tetrahydro-2H-[1,2′]bipyridinyl-5′-carbonitrile]	1.3
C[C@H](Oc1ccc(Cl)cc1)[C@H]1CCN(C(=O)C2CCN(c3ccc(C#N)cn3)CC2)C[C@@H]1c1ccc(Cl)cc1 [Example 55, 4-[(3S,4S)-4-[(S)-1-(4-Chloro-phenoxy)-ethyl]-3-(4-chloro-phenyl)-piperidine-1-carbonyl]-3,4,5,6-tetrahydro-2H-[1,2′]bipyridinyl-5′-carbonitrile]	0.9
C[C@H](Oc1ccc(Cl)cn1)[C@H]1CCN(C(=O)C2CCN(C(=O)C3(C)CC3)CC2)C[C@@H]1c1ccc(F)c(F)c1 [Example 63, {4-[(3S,4S)-4-[(S)-1-(5-Chloro-pyridin-2-yloxy)-ethyl]-3-(3,4-difluoro-phenyl)-piperidine-1-carbonyl]piperidin-1-yl}-(1-methyl-cyclopropyl)-methanone]	3.5
C[C@H](Oc1ccc(C#N)cn1)[C@H]1CCN(C(=O)N2CCN(S(C)(=O)=O)CC2)C[C@@H]1c1ccc(Cl)cc1 [Example 28, 6-{(S)-1-[(3S,4S)-3-(4-Chloro-phenyl)-1-(4-methanesulfonyl-piperazine-1-carbonyl)-piperidin-4-yl]-ethoxy}-nicotinonitrile]	3
C[C@H](Oc1cccc(F)c1)[C@H]1CCN(C(=O)C2CCN(c3ccc(C#N)cn3)CC2)C[C@@H]1c1ccc(Cl)cc1 [Example 56, 4-{(3S,4S)-3-(4-Chloro-phenyl)-4-[(S)-1-(3-fluoro-phenoxy)-ethyl]-piperidine-1-carbonyl}-3,4,5,6-tetrahydro-2H-[1,2′]bipyridinyl-5′-carbonitrile]	3.8
C[C@H](Oc1ccc(Cl)c(Cl)c1)[C@H]1CCN(C(=O)C2CCN(c3ccc(C#N)cn3)CC2)C[C@@H]1c1ccc(Cl)cc1 [Example 49, 4-{(3S,4S)-3-(4-Chloro-phenyl)-4-[(S)-1-(3,4-dichloro-phenoxy)-ethyl]-piperidine-1-carbonyl}-3,4,5,6-tetrahydro-2H-[1,2′]bipyridinyl-5′-carbonitrile]	5.5
C[C@H](Oc1ccc(Cl)cn1)[C@H]1CCN(C(=O)C2CCN(c3ccc(C#N)cn3)CC2)C[C@@H]1c1ccc(F)c(F)c1 [Example 62, 4-[(3S,4S)-4-[(S)-1-(5-Chloro-pyridin-2-yloxy)-ethyl]-3-(3,4-difluoro-phenyl)-piperidine-1-carbonyl]-3,4,5,6-tetrahydro-2H-[1,2′]bipyridinyl-5′-carbonitrile]	0.2
C[C@H](Oc1ncc(F)cn1)[C@H]1CCN(C(=O)C2CCN(c3ccc(C#N)cn3)CC2)C[C@@H]1c1ccc(Cl)cc1 [Example 61, 4-{(3S,4S)-3-(4-Chloro-phenyl)-4-[(S)-1-(5-fluoro-pyrimidin-2-yloxy)-ethyl]-piperidine-1-carbonyl}-3,4,5,6-tetrahydro-2H-[1,2′]bipyridinyl-5′-carbonitrile]	1.5
C[C@H](Oc1ccc(F)cc1)[C@H]1CCN(C(=O)C2CCN(c3ccc(C#N)cn3)CC2)C[C@@H]1c1ccc(Cl)cc1 [Example 53, 4-{(3S,4S)-3-(4-Chloro-phenyl)-4-[(S)-1-(4-fluoro-phenoxy)-ethyl]-piperidine-1-carbonyl}-3,4,5,6-tetrahydro-2H-[1,2′]bipyridinyl-5′-carbonitrile]	0.6

The next lines start with the values.

Ki [nM]	SMILES
5.1	Cc1nc(-c2ccc(C(=O)N3CC[C@H]([C@H](C)Oc4ccc(C#N)cn4)[C@@H](c4ccc(Cl)cc4)C3)cc2)no1 [Example 26, 6-((S)-1-{(3S,4S)-3-(4-Chloro-phenyl)-1-[4-(5-methyl-[1,2,4]oxadiazol-3-yl)-benzoyl]-piperidin-4-yl}-ethoxy)-nicotinonitrile]
5.6	Cc1cc(C(=O)N2CC[C@H]([C@H](C)Oc3ccc(C(F)(F)F)cn3)[C@@H](c3ccc(Cl)cc3)C2)cnn1 [Example 17, {(3S,4S)-3-(4-Chloro-phenyl)-4-[(S)-1-(5-trifluoromethyl-pyridin-2-yloxy)-ethyl]-piperidin-1-yl}-(6-methyl-pyridazin-4-yl)-methanone]
8.7	Cc1cc(C(=O)N2CC[C@H]([C@H](C)Oc3ccc(C#N)cn3)[C@@H](c3ccc(Cl)cc3)C2)cnn1 [Example 24, 6-{(S)-1-[(3S,4S)-3-(4-Chloro-phenyl)-1-(6-methyl-pyridazine-4-carbonyl)-piperidin-4-yl]-ethoxy}-nicotinonitrile]
1.4	Cc1nc(-c2ccc(C(=O)N3CC[C@H]([C@H](C)Oc4ccc(C(F)(F)F)cn4)[C@@H](c4ccc(Cl)cc4)C3)cc2)no1 [Example 19, {(3S,4S)-3-(4-Chloro-phenyl)-4-[(S)-1-(5-trifluoromethyl-pyridin-2-yloxy)-ethyl]-piperidin-1-yl}-[4-(5-methyl-[1,2,4]oxadiazol-3-yl)-phenyl]-methanone]
7.7	C[C@H](Oc1ccc(C#N)cn1)[C@H]1CCN(C(=O)c2ccc(-c3ccc(F)cc3)cc2)C[C@@H]1c1ccc(Cl)cc1 [Example 29, 6-{(8)-1-[(3S,4S)-3-(4-Chloro-phenyl)-1-(4′-fluoro-biphenyl-4-carbonyl)-piperidin-4-yl]-ethoxy}-nicotinonitrile]
1.8	Cc1noc(-c2ccc(C(=O)N3CC[C@H]([C@H](C)Oc4ccc(Cl)cn4)[C@@H](c4ccc(Cl)cc4)C3)cc2)n1 [Example 11, {(3S,4S)-3-(4-Chloro-phenyl)-4-[(S)-1-(5-chloro-pyridin-2-yloxy)-ethyl]-piperidin-1-yl}-[4-(3-methyl-[1,2,4]oxadiazol-5-yl)-phenyl]-methanone]
1.5	Cc1noc(-c2ccc(C(=O)N3CC[C@H]([C@H](C)Oc4ccc(C#N)cn4)[C@@H](c4ccc(Cl)cc4)C3)cc2)n1 [Example 25, 6-((S)-1-{(3S,4S)-3-(4-Chloro-phenyl)-1-[4-(3-methyl-[1,2,4]oxadiazol-5-yl)-benzoyl]-piperidin-4-yl}-ethoxy)-nicotinonitrile]
3.6	Cc1cc(C(=O)N2CC[C@H]([C@H](C)Oc3ccc(Cl)cn3)[C@@H](c3ccc(Cl)cc3)C2)cnn1 [Example 10, {(3S,4S)-3-(4-Chloro-phenyl)-4-[(S)-1-(5-chloro-pyridin-2-yloxy)-ethyl]-piperidin-1-yl}-(6-methyl-pyridazin-4-yl)-methanone]
